Experiment: Clinical trial of oral testosterone undecanoate TRT in hypogonadal males, 24 hour PK profiles of serum testosterone with dose titration at weeks 3 and 7
Type: in vivo, human
Procedure: Specifically, 24 hour pharmacokinetic profiles for serum testosterone were determined for hypogonadal subjects receiving 225 mg TU twice daily with a meal after 3 weeks of treatment. The titration or dose adjustment was made based on the serum testosterone Cavg0-24 value calculated from the 24 hour pharmacokinetic profile (or the Cmax value). Another titration or dose adjustment was made similarly at 7 weeks. The titration or adjustment criteria used during the study is shown in the first column of Table A with the titration decision (dose adjustment) is shown in column 3.
A clinical trial was performed as set forth below in regards to the TRT disclosed herein.
Diagnosis of primary or secondary hypogonadism Male, 18 to 80 years of age, hypogonadism onset prior to age 65 Serum T<300 ng/dL, based on 2 consecutive samples, obtained on two separate days (6 to 10 AM) either naïve or following appropriate washout.
IPSS≥19 points PSA>2 ng/mL
Hemoglobin <11.5 or >16.5 g/dL; Hematocrit <35 or >54% History of myocardial infarction; prostate or breast cancer; uncontrolled, untreated obstructive sleep apnea; gastric surgery, HIV, Hepatitis, seizures or convulsions Subjects with a partner who is pregnant or planning to become pregnant during the study A total of 314 subjects were enrolled and randomized into the TRT arm or active control arm. The clinical trial design is outlined in FIG. 1. Starting dose: 225 mg testosterone undecanoate (TU) (equivalent to 142 mg testosterone) twice daily, 12 hours apart, with standard meals Two dose titration periods based on full 24 hour PK profile at Week 3 and 7
The dose range was 150 mg to 300 mg BID (total daily dose of 300 mg to 600 mg TU).
Efficacy Population (N=153): Subjects randomized into the study with at least one PK profile and no significant protocol deviations (includes imputed missing data/LOCF)
Safety Set (N=210): Subjects randomized into the study and took at least one dose of the drug Imputed missing data by Last Observation Carried Forward (LOCF), or considered treatment failures if no PK data available Full Analysis Set (N=193): Subjects randomized into the study with at least one PK profile (includes imputed missing data/LOCF) Per Protocol Set (N=132): Subjects who completed Week 13 without significant protocol deviations Primary endpoint target ≥75% subjects should achieve Cavg within normal range (300 ng/dL to 1140 ng/dL) and >65% lower bound 95% CI

[1] = serum total T, Efficacy Population

## CCCCCCCCCCC(=O)O[C@H]1CC[C@H]2[C@@H]3CCC4=CC(=O)CC[C@]4(C)[C@H]3CC[C@]12C [testosterone undecanoate]
Efficacy Population
  95% CI lower bound of % subjects with Cavg within normal range: 81.9%
  % of subjects with Cavg < 300 ng/dL: 11.2%
  % of subjects with Cavg > 1140 ng/dL: 0.7%
Efficacy Population, serum testosterone Cavg 300 ng/dL to 1140 ng/dL
  % subjects with Cavg within normal range: 88.2%
Full Analysis Set
  95% CI lower bound of % subjects with Cavg within normal range: 82.0%
Full Analysis Set, Cavg 300 ng/dL to 1140 ng/dL
  % subjects with Cavg within normal range: 87.5%
Per Protocol Set
  95% CI lower bound of % subjects with Cavg within normal range: 81.1%
Per Protocol Set, Cavg 300 ng/dL to 1140 ng/dL
  % subjects with Cavg within normal range: 87.9%
Safety Set
  95% CI lower bound of % subjects with Cavg within normal range: 73.8%
Safety Set, Cavg 300 ng/dL to 1140 ng/dL
  % subjects with Cavg within normal range: 80.0%
Comparison table
  AM - PM effect: Not much different AM - PM
  Subjects with Cavg < 300 ng/dL: 11%
  Variability (CV) of Cavg: 37%
  Variability (CV) of Cmax: 45%
Comparison table, serum testosterone
  Mean Cavg: 447 ng/dL
Comparison table, starting daily dose 450 mg TU
  Efficacy (% subjects with Cavg in normal range): analysis (88.2%)
Patients without dose change during the trial
  24 hour pharmacokinetic profiles at weeks 3, 7 and 13 (FIG. 2): consistent inter-day pharmacokinetics
Serum testosterone, Efficacy Population
  Cavg, Mean (CV): 447 (37%) ng/dL
[1]
  Proportion of subjects with 1800 ≤ Cmax ≤ 2500 ng/dL: 4.6%
  Proportion of subjects with Cmax < 1500 ng/dL: 82.9%
  Proportion of subjects with Cmax > 2500 ng/dL: 2.0%
Subjects treated with TRT and titration scheme
  % subjects with serum testosterone Cavg0-24 h within the normal range: about 87%

Reference: patent publication US20210169899A1, “COMPOSITIONS AND THEIR USE IN ORAL DOSING REGIMENS” (Lipocine Inc., priority 2014, published 2021)
